Laboratory results from ChEMBL document CHEMBL4219215, “Discovery of {4-[4,9-bis(ethyloxy)-1-oxo-1,3-dihydro-2H-benzo[f]isoindol-2-yl]-2-fluorophenyl}acetic acid (GSK726701A), a novel EP4 receptor partial agonist for the treatment of pain” (Bioorg Med Chem Lett, 2018).

Tests used:
[1] = molecular target: T1, Prostaglandin E2 receptor EP3 subtype (Homo sapiens, UniProt P43115); assay: Activity at EP3 receptor (unknown origin)
T1 sequence (P43115 whole entry): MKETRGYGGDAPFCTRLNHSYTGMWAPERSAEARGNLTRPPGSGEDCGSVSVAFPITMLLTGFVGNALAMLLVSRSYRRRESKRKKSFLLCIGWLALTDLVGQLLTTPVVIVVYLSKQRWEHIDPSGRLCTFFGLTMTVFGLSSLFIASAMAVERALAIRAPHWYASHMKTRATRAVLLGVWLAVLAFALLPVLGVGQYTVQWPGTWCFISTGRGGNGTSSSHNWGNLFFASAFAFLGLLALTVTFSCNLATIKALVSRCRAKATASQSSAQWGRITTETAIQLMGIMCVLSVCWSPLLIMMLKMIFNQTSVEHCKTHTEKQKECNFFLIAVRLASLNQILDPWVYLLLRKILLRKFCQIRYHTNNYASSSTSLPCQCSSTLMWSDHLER

[2] = Intrinsic clearance in rat liver microsomes; assay type: ADME, microsome
Homo sapiens [3] = species: Homo sapiens; assay: Selectivity index, ratio of pIC50 for DP1 receptor (unknown origin) to pEC50 for partial agonist activity at human EP4 receptor expressed in HEK293-AEQ17 cells; assay type: cell-based
[4] = Half life in orally dosed cynomolgus monkey; assay type: ADME, organism-based, Macaca fascicularis; conditions: in vivo, po
Cynomolgus monkey = assay: Blood clearance in orally dosed cynomolgus monkey; assay type: ADME, organism-based, Macaca fascicularis; conditions: in vivo, po
Thromboxane A2 receptor = molecular target: T2, Thromboxane A2 receptor (Homo sapiens, UniProt P21731); assay: Activity at TP receptor (unknown origin)
T2 sequence (P21731 whole entry): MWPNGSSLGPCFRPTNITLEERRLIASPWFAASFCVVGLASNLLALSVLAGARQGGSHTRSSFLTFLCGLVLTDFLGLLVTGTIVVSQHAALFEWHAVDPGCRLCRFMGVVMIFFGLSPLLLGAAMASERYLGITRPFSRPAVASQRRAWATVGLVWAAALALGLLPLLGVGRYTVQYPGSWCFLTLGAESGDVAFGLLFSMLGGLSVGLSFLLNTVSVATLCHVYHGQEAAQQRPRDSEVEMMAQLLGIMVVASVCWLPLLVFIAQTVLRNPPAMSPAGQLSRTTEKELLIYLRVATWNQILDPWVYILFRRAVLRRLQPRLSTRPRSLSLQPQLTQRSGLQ

Homo sapiens [5] = species: Homo sapiens; assay: Selectivity index, ratio of pIC50 for EP1 receptor (unknown origin) to pEC50 for partial agonist activity at human EP4 receptor expressed in HEK293-AEQ17 cells; assay type: cell-based
[6] = molecular target: T3, Prostaglandin E2 receptor EP1 subtype (Homo sapiens, UniProt P34995); assay: Activity at EP1 receptor (unknown origin)
T3 sequence (P34995 whole entry): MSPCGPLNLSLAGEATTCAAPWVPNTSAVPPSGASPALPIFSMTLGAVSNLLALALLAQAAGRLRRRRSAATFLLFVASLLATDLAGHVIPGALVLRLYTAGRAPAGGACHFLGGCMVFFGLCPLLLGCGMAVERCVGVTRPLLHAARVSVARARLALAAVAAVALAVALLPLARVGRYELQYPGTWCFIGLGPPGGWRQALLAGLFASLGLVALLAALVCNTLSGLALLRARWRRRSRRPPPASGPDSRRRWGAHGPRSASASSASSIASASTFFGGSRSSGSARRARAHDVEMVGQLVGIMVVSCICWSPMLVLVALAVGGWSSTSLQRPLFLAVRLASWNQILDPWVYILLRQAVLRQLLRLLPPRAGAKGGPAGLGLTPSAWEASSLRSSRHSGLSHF

[7] = Intrinsic clearance in dog liver microsomes; assay type: ADME, Canis lupus familiaris, microsome
[8] = molecular target: Prostaglandin E2 receptor EP4 subtype (Homo sapiens, UniProt P35408); assay: Partial agonist activity at EP4 receptor in human whole blood assessed as inhibition of LPS-induced TNFalpha production; assay type: functional
[9] = Protein binding in rat plasma; assay type: ADME, cell-free; conditions: read-out: PPB (converted)
Rattus norvegicus [10] = assay: Potency index, ratio of ED50 for CCI17474 to ED50 for test compound for analgesic activity in orally dosed rat model of Freund's complete adjuvant-induced acute inflammatory pain assessed as reversal of FCA-induced hypersensitivity; assay type: functional
[11] = Ratio of drug level in brain to blood in rat at 1 mg/kg, po; assay type: ADME, organism-based
[12] = Blood clearance in rat at 1 mg/kg, po; assay type: ADME, organism-based
[13] = molecular target: Prostaglandin F2-alpha receptor (Homo sapiens, UniProt P43088); assay: Activity at FP receptor (unknown origin)
Rattus norvegicus [14] = assay: Analgesic activity in rat model of chronic joint pain assessed as reversal of pain by measuring weight bearing level at 1 mg/kg, po dosed twice daily for 5 days relative to untreated control; assay type: functional; conditions: 120 h
[15] = Oral bioavailability in cynomolgus monkey; assay type: ADME, organism-based, Macaca fascicularis; conditions: in vivo
[16] = Intrinsic clearance in human liver microsomes; assay type: ADME, microsome
Cytochrome P450 2C9 = Cytochrome P450 2C9 (Homo sapiens, UniProt P11712); assay: Inhibition of human recombinant CYP2C9; assay type: ADME; conditions: human, recombinant enzyme
[17] = molecular target: Prostacyclin receptor (Homo sapiens) (UniProt P43119); assay: Antagonist activity at IP receptor (unknown origin) assessed as inhibition of receptor activation at 1 uM; assay type: functional
Cytochrome P450 2D6 = Cytochrome P450 2D6 (Homo sapiens, UniProt P10635); assay: Inhibition of human recombinant CYP2D6; assay type: ADME; conditions: human, recombinant enzyme
Homo sapiens [18] = species: Homo sapiens; assay: Selectivity index, ratio of pIC50 for EP3 receptor (unknown origin) to pEC50 for partial agonist activity at human EP4 receptor expressed in HEK293-AEQ17 cells; assay type: cell-based
Rattus norvegicus [19] = assay: Analgesic activity in rat model of chronic joint pain dosed twice daily for 5 days; assay type: functional; conditions: 120 h
Rattus norvegicus [20] = assay: Analgesic activity in rat model of chronic constriction injury-induced neuropathic pain assessed as reversal of mechanical allodynia at 3 mg/kg dosed twice daily for 8 days relative to untreated control; assay type: functional; conditions: 192 h
[21] = molecular target: Prostacyclin receptor (Homo sapiens) (UniProt P43119); assay: Agonist activity at IP receptor (unknown origin) assessed as induction of receptor activation at 1 uM; assay type: functional
[22] = Total drug level in blood of orally dosed rat model of Freund's complete adjuvant-induced acute inflammatory pain assessed as reduction in reversal of hypersensitivity; assay type: ADME, organism-based; conditions: in vivo, po, read-out: Drug uptake
Rattus norvegicus [23] = assay: Analgesic activity in orally dosed rat model of Freund's complete adjuvant-induced acute inflammatory pain assessed as reversal of FCA-induced hypersensitivity; assay type: functional; conditions: po
[24] = Protein binding in dog plasma; assay type: ADME, cell-free, Canis lupus familiaris; conditions: read-out: PPB (converted)
Rattus norvegicus [25] = assay: Analgesic activity in rat model of Freund's complete adjuvant-induced acute inflammatory pain assessed as reversal of FCA-induced hypersensitivity at 3 mg/kg, po relative to untreated control; assay type: functional
Homo sapiens [26] = species: Homo sapiens; assay: Selectivity index, ratio of agonist activity at EP2 receptor (unknown origin) to pEC50 for partial agonist activity at human EP4 receptor expressed in HEK293-AEQ17 cells; assay type: cell-based
Rattus norvegicus [27] = assay: Analgesic activity in rat model of chronic constriction injury-induced neuropathic pain assessed as reversal of mechanical allodynia at 3 mg/kg dosed twice daily for 8 days; assay type: functional, organism-based; conditions: TDE = time-dependent effect
Homo sapiens [28] = species: Homo sapiens; assay: Selectivity index, ratio of pIC50 for FP receptor (unknown origin) to pEC50 for partial agonist activity at human EP4 receptor expressed in HEK293-AEQ17 cells; assay type: cell-based

Sequence of Prostacyclin receptor (Homo sapiens) (P43119 whole entry): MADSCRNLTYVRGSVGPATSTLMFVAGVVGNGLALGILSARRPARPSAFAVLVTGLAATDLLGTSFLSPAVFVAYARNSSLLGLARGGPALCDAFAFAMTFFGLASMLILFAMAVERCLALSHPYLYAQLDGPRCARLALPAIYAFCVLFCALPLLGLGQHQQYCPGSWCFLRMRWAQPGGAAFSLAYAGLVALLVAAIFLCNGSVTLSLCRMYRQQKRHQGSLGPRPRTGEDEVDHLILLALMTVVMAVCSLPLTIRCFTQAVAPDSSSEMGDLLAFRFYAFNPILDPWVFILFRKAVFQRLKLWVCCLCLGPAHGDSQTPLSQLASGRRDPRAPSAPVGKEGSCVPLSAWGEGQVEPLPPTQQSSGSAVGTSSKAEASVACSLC
Sequence of Cytochrome P450 2C9 (P11712 whole entry): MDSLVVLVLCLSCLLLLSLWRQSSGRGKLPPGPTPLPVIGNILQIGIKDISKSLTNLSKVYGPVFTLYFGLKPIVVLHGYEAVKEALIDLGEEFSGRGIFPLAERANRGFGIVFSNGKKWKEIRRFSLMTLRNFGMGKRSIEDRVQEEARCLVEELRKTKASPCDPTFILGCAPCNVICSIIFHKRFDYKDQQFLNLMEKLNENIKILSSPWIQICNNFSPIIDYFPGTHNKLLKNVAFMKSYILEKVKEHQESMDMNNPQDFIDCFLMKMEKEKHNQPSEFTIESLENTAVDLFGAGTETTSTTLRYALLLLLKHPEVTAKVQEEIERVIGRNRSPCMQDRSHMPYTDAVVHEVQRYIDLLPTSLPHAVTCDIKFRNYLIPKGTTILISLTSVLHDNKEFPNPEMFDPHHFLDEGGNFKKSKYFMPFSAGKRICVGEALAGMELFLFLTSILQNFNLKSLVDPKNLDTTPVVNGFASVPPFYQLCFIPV
Sequence of Cytochrome P450 2D6 (P10635 whole entry): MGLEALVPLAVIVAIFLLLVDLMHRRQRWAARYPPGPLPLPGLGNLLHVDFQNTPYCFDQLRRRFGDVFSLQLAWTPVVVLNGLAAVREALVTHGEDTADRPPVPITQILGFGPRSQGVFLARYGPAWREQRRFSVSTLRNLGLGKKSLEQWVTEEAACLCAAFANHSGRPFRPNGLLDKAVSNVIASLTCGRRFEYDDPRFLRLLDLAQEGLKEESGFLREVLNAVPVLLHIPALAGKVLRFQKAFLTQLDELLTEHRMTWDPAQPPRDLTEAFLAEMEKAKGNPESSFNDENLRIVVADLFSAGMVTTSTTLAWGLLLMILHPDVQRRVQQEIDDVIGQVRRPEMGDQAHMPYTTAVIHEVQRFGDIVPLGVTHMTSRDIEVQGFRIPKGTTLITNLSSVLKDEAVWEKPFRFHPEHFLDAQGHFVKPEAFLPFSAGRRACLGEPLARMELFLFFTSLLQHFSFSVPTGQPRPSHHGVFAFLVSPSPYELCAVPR
Sequence of Prostaglandin E2 receptor EP4 subtype (P35408 whole entry): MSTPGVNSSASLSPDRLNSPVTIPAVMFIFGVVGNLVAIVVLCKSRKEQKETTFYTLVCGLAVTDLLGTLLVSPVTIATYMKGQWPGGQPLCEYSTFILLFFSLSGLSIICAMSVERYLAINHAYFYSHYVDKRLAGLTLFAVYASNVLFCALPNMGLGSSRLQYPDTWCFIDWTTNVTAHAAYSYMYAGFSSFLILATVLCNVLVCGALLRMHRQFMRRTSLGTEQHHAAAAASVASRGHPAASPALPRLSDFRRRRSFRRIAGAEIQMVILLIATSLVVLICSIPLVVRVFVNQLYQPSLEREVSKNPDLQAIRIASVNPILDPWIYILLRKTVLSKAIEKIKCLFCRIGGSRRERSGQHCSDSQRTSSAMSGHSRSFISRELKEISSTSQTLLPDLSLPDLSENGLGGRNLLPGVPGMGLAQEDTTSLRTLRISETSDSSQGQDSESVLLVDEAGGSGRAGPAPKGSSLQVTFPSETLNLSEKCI
Sequence of Prostaglandin F2-alpha receptor (P43088 whole entry): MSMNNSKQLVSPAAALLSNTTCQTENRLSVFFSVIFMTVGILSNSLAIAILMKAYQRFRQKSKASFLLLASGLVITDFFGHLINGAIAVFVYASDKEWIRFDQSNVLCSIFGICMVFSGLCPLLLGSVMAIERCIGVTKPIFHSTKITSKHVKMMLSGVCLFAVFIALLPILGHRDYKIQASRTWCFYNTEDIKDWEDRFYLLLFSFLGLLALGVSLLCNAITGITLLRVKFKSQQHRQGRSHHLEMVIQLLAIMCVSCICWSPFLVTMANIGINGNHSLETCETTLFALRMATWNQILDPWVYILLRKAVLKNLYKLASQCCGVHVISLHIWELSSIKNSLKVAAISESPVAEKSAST

IC50 [1]: > 10 µM | CLH [2]: < 1 mL/min/g | half-life [4]: 5 to 10 h | clearance (Cynomolgus monkey): 4 mL/min/kg | IC50 (Thromboxane A2 receptor): > 10 µM | IC50 [6]: > 10 µM | CLH [7]: < 1 mL/min/g | EC50 [8]: 0.00631 µM | fraction unbound [9]: 0.002 | Kp [11]: < 0.05 | CL/F [12]: 1 mL/min/kg | IC50 [13]: > 10 µM | bioavailability [15]: 50% | CLH [16]: < 1 mL/min/g | INH (Cytochrome P450 2C9): > 100 µM | inhibition [17]: 31% | INH (Cytochrome P450 2D6): > 100 µM | Activity [21]: 11% | concentration [22]: 600 nM | fraction unbound [24]: 0.009
Structure (SMILES): CCOc1c2c(c(OCC)c3ccccc13)C(=O)N(c1ccc(CC(=O)O)c(F)c1)C2
Selectivity ratio (Homo sapiens [3]): > 100 | Selectivity ratio (Homo sapiens [5]): > 100 | Ratio ED50 (Rattus norvegicus [10]): >10 | inhibition in vivo at 1 mg/kg (Rattus norvegicus [14]): 100% | Selectivity ratio (Homo sapiens [18]): > 100 | ED50 (Rattus norvegicus [19]): 0.23 mg/kg | inhibition in vivo at 3 mg/kg (Rattus norvegicus [20]): 100% | ED50 (Rattus norvegicus [23]): 0.2 to 0.22 mg/kg | Activity (Rattus norvegicus [25]): 80% | Selectivity ratio (Homo sapiens [26]): > 100 | Activity (Rattus norvegicus [27]): Tde | Selectivity ratio (Homo sapiens [28]): > 100
